We go through one compound from BindingDB's records for doi:10.1021/acs.jmedchem.0c00182 (Inception Therapeutics, 2020).

The nature of this test: Inhibition of eIF4A1 in human HAP1 cells assessed as reduction in cell proliferation incubated for 72 hrs by CellTiter-Glo reagent based assay.

Regarding `COc1cc2c(c(OC)n1)[C@]1(O)[C@H](O)[C@H](CN(C)C)[C@@H](c3ccccc3)[C@]1(c1ccc(C#N)cc1)O2` [Zotatifin], the 50% inhibitory concentration (IC50) (as a rule, the concentration needed to halve the response being measured) is 6.3 nM.
